Experimental data from the supplement of paper PMC4862054.

The molecules below were run on HDQ-P1 (assay: normalised response (% of control), CellTiter-Glo; higher = more viable cells (100 = DMSO, 0 = benzethonium chloride kill control)). Conditions: incubation time: 72 h.
How it was run: (§1)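 A 20 µl suspension of breast cancer cells was seeded into each well of 384-well plates containing compound at 5 concentrations in 10-fold steps over a compound-specific 10,000-fold range. After 72 h incubation, CellTox Green fluorescence (485/520 nm) was read first, and CellTiter-Glo luminescence was read after 10 min at room temperature. Each plate was normalised against 0.1 % DMSO (100) and a positive kill control (0), and each value is the normalised signal at one concentration.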
`Cc1c(C(=O)Nc2ccc(N3C[C@@H](C)O[C@@H](C)C3)nc2)cccc1-c1ccc(OC(F)(F)F)cc1` [Erismodegib] (1 nM) gave a normalised response of 94.1%. For `Cc1c(C(=O)Nc2ccc(N3C[C@@H](C)O[C@@H](C)C3)nc2)cccc1-c1ccc(OC(F)(F)F)cc1` [Erismodegib] (10 nM), the normalised response was 95.5%. `CC(C)C(=O)Nc1ccc([N+](=O)[O-])c(C(F)(F)F)c1` [Flutamide] (10 nM) gave a normalised response of 98.4%. Work on `COc1cc2c(Oc3ccc(NC(=O)C4(C(=O)Nc5ccc(F)cc5)CC4)cc3F)ccnc2cc1OCCCN1CCOCC1` [Foretinib] (1 nM) yielded a normalised response of 97.7%. `COc1cc(Nc2ncc(F)c(Nc3ccc4c(n3)N(COP(=O)(O)O)C(=O)C(C)(C)O4)n2)cc(OC)c1OC` [Fostamatinib] (0.25 nM) showed a normalised response of 99.1%. In the case of `COc1cc(Nc2ncc(F)c(Nc3ccc4c(n3)N(COP(=O)(O)O)C(=O)C(C)(C)O4)n2)cc(OC)c1OC` [Fostamatinib] (2.5 nM), the normalised response is reported as 110%. With `CC(C)NC[C@@H](C(=O)N1CCN(c2ncnc3c2[C@H](C)C[C@H]3O)CC1)c1ccc(Cl)cc1` [GDC-0068] (1 nM) the normalised response was 99.8%. In the case of `CCCc1cc(C)[nH]c(=O)c1CNC(=O)c1cc(-c2ccnc(N3CCN(C)CC3)c2)cc2c1cnn2C(C)C` [GSK343] (1 nM), the normalised response is reported as 98%. `CCCc1cc(C)[nH]c(=O)c1CNC(=O)c1cc(-c2ccnc(N3CCN(C)CC3)c2)cc2c1cnn2C(C)C` [GSK343] (10 nM) showed a normalised response of 97.6%. `NC(=O)NO` [Hydroxyurea] (100 nM) was tested, and the normalised response was 97.3%. With `COc1cc2c(cc1-c1c(C)noc1C)ncc1[nH]c(=O)n([C@H](C)c3ccccn3)c12` [I-BET151] (1 nM) the normalised response was 106%. Molecule `CC(C)n1nc(-c2ccc3oc(N)nc3c2)c2c(N)ncnc21` [INK128] (0.1 nM) has a normalised response of 87.9%. `CC(C)n1nc(-c2ccc3oc(N)nc3c2)c2c(N)ncnc21` [INK128] (1 nM) showed a normalised response of 95.8%. With `O=NN(CCCl)C(=O)NC1CCCCC1` [Lomustine] (10 nM) the normalised response was 102%. Work on `O=C(O)CC[C@H]1CC[C@@](c2cc(F)ccc2F)(S(=O)(=O)c2ccc(Cl)cc2)CC1` [MK-0752] (1 nM) yielded a normalised response of 95.6%. `NC1(c2ccc(-c3nc4ccn5c(=O)[nH]nc5c4cc3-c3ccccc3)cc2)CCC1` [MK-2206] (1 nM) showed a normalised response of 96.5%. With `NC(=O)c1cccc2cn(-c3ccc([C@@H]4CCCNC4)cc3)nc12` [MK-4827] (10 nM) the normalised response was 93.7%. In the case of `N[C@@H](Cc1ccc(N(CCCl)CCCl)cc1)C(=O)O` [Melphalan] (1.25 nM), the normalised response is reported as 106%. For `N[C@@H](Cc1ccc(N(CCCl)CCCl)cc1)C(=O)O` [Melphalan] (12.5 nM), the normalised response was 103%. `O=C(c1cc(Cc2n[nH]c(=O)c3ccccc23)ccc1F)N1CCN(C(=O)C2CC2)CC1` [Olaparib] (10 nM) showed a normalised response of 96.2%.

These molecules were tested on Hs578T in the same assay as above. Conditions: incubation time: 72 h.
How it was run: as §1
In the case of `Cc1c(C(=O)Nc2ccc(N3C[C@@H](C)O[C@@H](C)C3)nc2)cccc1-c1ccc(OC(F)(F)F)cc1` [Erismodegib] (1 nM), the normalised response is reported as 91.6%. `Cc1c(C(=O)Nc2ccc(N3C[C@@H](C)O[C@@H](C)C3)nc2)cccc1-c1ccc(OC(F)(F)F)cc1` [Erismodegib] (10 nM) was tested, and the normalised response was 101%. `CC(C)C(=O)Nc1ccc([N+](=O)[O-])c(C(F)(F)F)c1` [Flutamide] (10 nM) gave a normalised response of 98.6%. Molecule `COc1cc2c(Oc3ccc(NC(=O)C4(C(=O)Nc5ccc(F)cc5)CC4)cc3F)ccnc2cc1OCCCN1CCOCC1` [Foretinib] (1 nM) has a normalised response of 97.4%. Work on `COc1cc(Nc2ncc(F)c(Nc3ccc4c(n3)N(COP(=O)(O)O)C(=O)C(C)(C)O4)n2)cc(OC)c1OC` [Fostamatinib] (0.25 nM) yielded a normalised response of 99.2%. `COc1cc(Nc2ncc(F)c(Nc3ccc4c(n3)N(COP(=O)(O)O)C(=O)C(C)(C)O4)n2)cc(OC)c1OC` [Fostamatinib] (2.5 nM) was tested, and the normalised response was 102%. `CC(C)NC[C@@H](C(=O)N1CCN(c2ncnc3c2[C@H](C)C[C@H]3O)CC1)c1ccc(Cl)cc1` [GDC-0068] (1 nM) gave a normalised response of 101%. In the case of `CCCc1cc(C)[nH]c(=O)c1CNC(=O)c1cc(-c2ccnc(N3CCN(C)CC3)c2)cc2c1cnn2C(C)C` [GSK343] (1 nM), the normalised response is reported as 105%. For `CCCc1cc(C)[nH]c(=O)c1CNC(=O)c1cc(-c2ccnc(N3CCN(C)CC3)c2)cc2c1cnn2C(C)C` [GSK343] (10 nM), the normalised response was 101%. For `NC(=O)NO` [Hydroxyurea] (100 nM), the normalised response was 102%. Molecule `COc1cc2c(cc1-c1c(C)noc1C)ncc1[nH]c(=O)n([C@H](C)c3ccccn3)c12` [I-BET151] (1 nM) has a normalised response of 101%. For `CC(C)n1nc(-c2ccc3oc(N)nc3c2)c2c(N)ncnc21` [INK128] (0.1 nM), the normalised response was 96.3%. With `CC(C)n1nc(-c2ccc3oc(N)nc3c2)c2c(N)ncnc21` [INK128] (1 nM) the normalised response was 98.9%. In the case of `O=NN(CCCl)C(=O)NC1CCCCC1` [Lomustine] (10 nM), the normalised response is reported as 108%. `O=C(O)CC[C@H]1CC[C@@](c2cc(F)ccc2F)(S(=O)(=O)c2ccc(Cl)cc2)CC1` [MK-0752] (1 nM) showed a normalised response of 104%. `NC1(c2ccc(-c3nc4ccn5c(=O)[nH]nc5c4cc3-c3ccccc3)cc2)CCC1` [MK-2206] (1 nM) gave a normalised response of 96.5%. Work on `NC(=O)c1cccc2cn(-c3ccc([C@@H]4CCCNC4)cc3)nc12` [MK-4827] (10 nM) yielded a normalised response of 98.4%. Work on `N[C@@H](Cc1ccc(N(CCCl)CCCl)cc1)C(=O)O` [Melphalan] (1.25 nM) yielded a normalised response of 109%. For `N[C@@H](Cc1ccc(N(CCCl)CCCl)cc1)C(=O)O` [Melphalan] (12.5 nM), the normalised response was 104%. With `O=C(c1cc(Cc2n[nH]c(=O)c3ccccc23)ccc1F)N1CCN(C(=O)C2CC2)CC1` [Olaparib] (10 nM) the normalised response was 98.6%.

The molecules below were run on CAL-120 in the same assay as above. Conditions: incubation time: 72 h.
How it was run: as §1
`Cc1c(C(=O)Nc2ccc(N3C[C@@H](C)O[C@@H](C)C3)nc2)cccc1-c1ccc(OC(F)(F)F)cc1` [Erismodegib] (1 nM) gave a normalised response of 99.2%. Molecule `Cc1c(C(=O)Nc2ccc(N3C[C@@H](C)O[C@@H](C)C3)nc2)cccc1-c1ccc(OC(F)(F)F)cc1` [Erismodegib] (10 nM) has a normalised response of 91.7%. `CC(C)C(=O)Nc1ccc([N+](=O)[O-])c(C(F)(F)F)c1` [Flutamide] (10 nM) was tested, and the normalised response was 97.6%. `COc1cc2c(Oc3ccc(NC(=O)C4(C(=O)Nc5ccc(F)cc5)CC4)cc3F)ccnc2cc1OCCCN1CCOCC1` [Foretinib] (1 nM) was tested, and the normalised response was 99.7%. `COc1cc(Nc2ncc(F)c(Nc3ccc4c(n3)N(COP(=O)(O)O)C(=O)C(C)(C)O4)n2)cc(OC)c1OC` [Fostamatinib] (0.25 nM) gave a normalised response of 107%. `COc1cc(Nc2ncc(F)c(Nc3ccc4c(n3)N(COP(=O)(O)O)C(=O)C(C)(C)O4)n2)cc(OC)c1OC` [Fostamatinib] (2.5 nM) gave a normalised response of 105%. Work on `CC(C)NC[C@@H](C(=O)N1CCN(c2ncnc3c2[C@H](C)C[C@H]3O)CC1)c1ccc(Cl)cc1` [GDC-0068] (1 nM) yielded a normalised response of 95.9%.
